Experimental data published in paper PMC10609013, “Solubility and Thermodynamic Analysis of Isotretinoin in Different (DMSO + Water) Mixtures” (Molecules, 2023).

Legend:
[1] = Apparent thermodynamic analysis of ITN dissolution (van't Hoff and Gibbs equations); type: physicochemical
Description: At the mean harmonic temperature (Thm), all apparent thermodynamic parameters for ITN were determined. The Thm was determined using the reported equation [51, 56]. […] The “van’t Hoff and Gibbs equations” were used to calculate these parameters. The ΔsolH^0 values for ITN (3) in various {DMSO (1) + H2O (2)} mixtures were calculated using Equation (10) and Thm = 308 K [47, 62]:(10) ∂lnxe/∂1/T−1/ThmP=−∆solH^0/R
The “ΔsolH^0” for ITN was derived using the graphed “van’t Hoff” plots between the ln xe values of ITN and 1/T−1/Thm .
Additionally, at Thm = 308 K, the ΔsolG^0 for ITN (3) in binary {DMSO (1) + H2O (2)} mixes was calculated using the Krug et al. methodology via Equation (11):(11) ∆solG^0=−RThm×intercept where, the “van’t Hoff plots” shown in Figure 5 were used to determine the intercept values for ITN (3) in binary mixtures of DMSO (1) and H2O (2).
By Equation (12), the ΔsolS^0 for ITN (3) in numerous {DMSO (1) + H2O (2)} mixtures was derived:(12) ∆solS^0=∆solH^0−∆solG^0/Thm

[2] = Activity coefficients (γi) of ITN, Equation (4); type: physicochemical
From the text: Finally, the x^idl values for ITN were derived from Equation (2). Equation (4) was used to derive the γi values for ITN in numerous {DMSO (1) + H2O (2)} mixes including neat DMSO and H2O [56, 58]:(4) γi=x^idl/xe

[3] = DMSO mass fraction m = 0.0, Thm = 308 K
[4] = DMSO mass fraction m = 0.1, Thm = 308 K
[5] = DMSO mass fraction m = 0.2, Thm = 308 K
[6] = DMSO mass fraction m = 0.3, Thm = 308 K
[7] = DMSO mass fraction m = 0.4, Thm = 308 K
[8] = DMSO mass fraction m = 0.5, Thm = 308 K
[9] = DMSO mass fraction m = 0.6, Thm = 308 K
[10] = DMSO mass fraction m = 0.7, Thm = 308 K
[11] = DMSO mass fraction m = 0.8, Thm = 308 K
[12] = DMSO mass fraction m = 0.9, Thm = 308 K
[13] = DMSO mass fraction m = 1.0, Thm = 308 K

For `CC1=C(/C=C/C(C)=C/C=C/C(C)=C\C(=O)O)C(C)(C)CCC1` [ITN, isotretinoin], the “ΔsolG^0 apparent standard Gibbs energy” value [1, 3] was 36.27 (0.43) kJ mol^−1, the “ΔsolH^0 apparent standard enthalpy” value [1, 3] was 63.00 (0.76) kJ mol^−1 and the “ΔsolS^0 apparent standard entropy” value [1, 3] was 86.78 (1.12) J mol^−1 K^−1. For the same compound, the “ΔsolG^0 apparent standard Gibbs energy” value [1, 4] was 33.20 (0.41) kJ mol^−1, the “ΔsolH^0 apparent standard enthalpy” value [1, 4] was 57.15 (0.67) kJ mol^−1 and the “ΔsolS^0 apparent standard entropy” value [1, 4] was 77.75 (1.03) J mol^−1 K^−1. The “ΔsolG^0 apparent standard Gibbs energy” value [1, 5] was 30.19 (0.39) kJ mol^−1, the “ΔsolH^0 apparent standard enthalpy” value [1, 5] was 52.98 (0.63) kJ mol^−1 and the “ΔsolS^0 apparent standard entropy” value [1, 5] was 73.99 (1.00) J mol^−1 K^−1. For the same compound, the “ΔsolG^0 apparent standard Gibbs energy” value [1, 6] was 27.15 (0.37) kJ mol^−1, the “ΔsolH^0 apparent standard enthalpy” value [1, 6] was 46.19 (0.52) kJ mol^−1 and the “ΔsolS^0 apparent standard entropy” value [1, 6] was 61.83 (0.98) J mol^−1 K^−1. The “ΔsolG^0 apparent standard Gibbs energy” value [1, 7] was 24.14 (0.36) kJ mol^−1, the “ΔsolH^0 apparent standard enthalpy” value [1, 7] was 41.89 (0.48) kJ mol^−1 and the “ΔsolS^0 apparent standard entropy” value [1, 7] was 57.59 (0.92) J mol^−1 K^−1. For the same compound, the “ΔsolG^0 apparent standard Gibbs energy” value [1, 8] was 21.13 (0.30) kJ mol^−1, the “ΔsolH^0 apparent standard enthalpy” value [1, 8] was 35.40 (0.42) kJ mol^−1 and the “ΔsolS^0 apparent standard entropy” value [1, 8] was 46.31 (0.81) J mol^−1 K^−1. The “ΔsolG^0 apparent standard Gibbs energy” value [1, 9] was 18.10 (0.26) kJ mol^−1, the “ΔsolH^0 apparent standard enthalpy” value [1, 9] was 31.28 (0.40) kJ mol^−1 and the “ΔsolS^0 apparent standard entropy” value [1, 9] was 42.78 (0.74) J mol^−1 K^−1. The “ΔsolG^0 apparent standard Gibbs energy” value [1, 10] was 15.10 (0.24) kJ mol^−1, the “ΔsolH^0 apparent standard enthalpy” value [1, 10] was 23.95 (0.32) kJ mol^−1 and the “ΔsolS^0 apparent standard entropy” value [1, 10] was 28.74 (0.56) J mol^−1 K^−1. For the same compound, the “ΔsolG^0 apparent standard Gibbs energy” value [1, 11] was 12.07 (0.20) kJ mol^−1, the “ΔsolH^0 apparent standard enthalpy” value [1, 11] was 20.05 (0.28) kJ mol^−1 and the “ΔsolS^0 apparent standard entropy” value [1, 11] was 25.90 (0.48) J mol^−1 K^−1. The “ΔsolG^0 apparent standard Gibbs energy” value [1, 12] was 9.078 (0.14) kJ mol^−1, the “ΔsolH^0 apparent standard enthalpy” value [1, 12] was 13.35 (0.22) kJ mol^−1 and the “ΔsolS^0 apparent standard entropy” value [1, 12] was 13.87 (0.23) J mol^−1 K^−1. For the same compound, the “ΔsolG^0 apparent standard Gibbs energy” value [1, 13] was 6.077 (0.09) kJ mol^−1, the “ΔsolH^0 apparent standard enthalpy” value [1, 13] was 7.430 (0.10) kJ mol^−1 and the “ΔsolS^0 apparent standard entropy” value [1, 13] was 4.392 (0.10) J mol^−1 K^−1. The nature of dissolution ([1]; all {DMSO (1) + H2O (2)} mixes, including neat DMSO and H2O) was “endothermic and entropy-driven”, the γi activity coefficient ([2]; DMSO mass fraction m = 0.0, T = 298.2 K) was 1,366,467 and the γi activity coefficient ([2]; DMSO mass fraction m = 0.0, T = 303.2 K) was 972,627.0. The γi activity coefficient ([2]; DMSO mass fraction m = 0.0, T = 308.2 K) was 611,320.0, the γi activity coefficient ([2]; DMSO mass fraction m = 0.0, T = 313.2 K) was 441,076.0 and the γi activity coefficient ([2]; DMSO mass fraction m = 0.0, T = 318.2 K) was 326,128.0. For the same compound, the γi activity coefficient ([2]; DMSO mass fraction m = 0.1, T = 298.2 K) was 384,000.0, the γi activity coefficient ([2]; DMSO mass fraction m = 0.1, T = 303.2 K) was 278,000.0 and the γi activity coefficient ([2]; DMSO mass fraction m = 0.1, T = 308.2 K) was 187,000.0. The γi activity coefficient ([2]; DMSO mass fraction m = 0.1, T = 313.2 K) was 136,000.0, the γi activity coefficient ([2]; DMSO mass fraction m = 0.1, T = 318.2 K) was 106,000.0 and the γi activity coefficient ([2]; DMSO mass fraction m = 0.2, T = 298.2 K) was 111,979.0. The γi activity coefficient ([2]; DMSO mass fraction m = 0.2, T = 303.2 K) was 83,952.80, the γi activity coefficient ([2]; DMSO mass fraction m = 0.2, T = 308.2 K) was 58,249.00 and the γi activity coefficient ([2]; DMSO mass fraction m = 0.2, T = 313.2 K) was 43,099.10. For the same compound, the γi activity coefficient ([2]; DMSO mass fraction m = 0.2, T = 318.2 K) was 34,943.20, the γi activity coefficient ([2]; DMSO mass fraction m = 0.3, T = 298.2 K) was 31,441.80 and the γi activity coefficient ([2]; DMSO mass fraction m = 0.3, T = 303.2 K) was 24,298.30. The γi activity coefficient ([2]; DMSO mass fraction m = 0.3, T = 308.2 K) was 17,811.50, the γi activity coefficient ([2]; DMSO mass fraction m = 0.3, T = 313.2 K) was 13,802.30 and the γi activity coefficient ([2]; DMSO mass fraction m = 0.3, T = 318.2 K) was 11,402.70. For the same compound, the γi activity coefficient ([2]; DMSO mass fraction m = 0.4, T = 298.2 K) was 9161.740, the γi activity coefficient ([2]; DMSO mass fraction m = 0.4, T = 303.2 K) was 7310.360 and the γi activity coefficient ([2]; DMSO mass fraction m = 0.4, T = 308.2 K) was 5568.540. For the same compound, the γi activity coefficient ([2]; DMSO mass fraction m = 0.4, T = 313.2 K) was 4372.740, the γi activity coefficient ([2]; DMSO mass fraction m = 0.4, T = 318.2 K) was 3713.1570 and the γi activity coefficient ([2]; DMSO mass fraction m = 0.5, T = 298.2 K) was 2602.340. For the same compound, the γi activity coefficient ([2]; DMSO mass fraction m = 0.5, T = 303.2 K) was 2166.250, the γi activity coefficient ([2]; DMSO mass fraction m = 0.5, T = 308.2 K) was 1703.980 and the γi activity coefficient ([2]; DMSO mass fraction m = 0.5, T = 313.2 K) was 1429.250. It also gave a γi activity coefficient ([2]; DMSO mass fraction m = 0.5, T = 318.2 K) of 1233.060, a γi activity coefficient ([2]; DMSO mass fraction m = 0.6, T = 298.2 K) of 751.8650 and a γi activity coefficient ([2]; DMSO mass fraction m = 0.6, T = 303.2 K) of 644.3650. The γi activity coefficient ([2]; DMSO mass fraction m = 0.6, T = 308.2 K) was 534.7140, the γi activity coefficient ([2]; DMSO mass fraction m = 0.6, T = 313.2 K) was 438.6560 and the γi activity coefficient ([2]; DMSO mass fraction m = 0.6, T = 318.2 K) was 399.5110. The γi activity coefficient ([2]; DMSO mass fraction m = 0.7, T = 298.2 K) was 211.8050, the γi activity coefficient ([2]; DMSO mass fraction m = 0.7, T = 303.2 K) was 189.9250 and the γi activity coefficient ([2]; DMSO mass fraction m = 0.7, T = 308.2 K) was 164.4500. For the same compound, the γi activity coefficient ([2]; DMSO mass fraction m = 0.7, T = 313.2 K) was 146.1890, the γi activity coefficient ([2]; DMSO mass fraction m = 0.7, T = 318.2 K) was 133.4190 and the γi activity coefficient ([2]; DMSO mass fraction m = 0.8, T = 298.2 K) was 61.49. For the same compound, the γi activity coefficient ([2]; DMSO mass fraction m = 0.8, T = 303.2 K) was 56.72, the γi activity coefficient ([2]; DMSO mass fraction m = 0.8, T = 308.2 K) was 51.11 and the γi activity coefficient ([2]; DMSO mass fraction m = 0.8, T = 313.2 K) was 46.46. For the same compound, the γi activity coefficient ([2]; DMSO mass fraction m = 0.8, T = 318.2 K) was 42.45, the γi activity coefficient ([2]; DMSO mass fraction m = 0.9, T = 298.2 K) was 17.6 and the γi activity coefficient ([2]; DMSO mass fraction m = 0.9, T = 303.2 K) was 16.68. It also gave a γi activity coefficient ([2]; DMSO mass fraction m = 0.9, T = 308.2 K) of 16.02, a γi activity coefficient ([2]; DMSO mass fraction m = 0.9, T = 313.2 K) of 14.84 and a γi activity coefficient ([2]; DMSO mass fraction m = 0.9, T = 318.2 K) of 14.42. The γi activity coefficient ([2]; DMSO mass fraction m = 1.0, T = 298.2 K) was 5.057, the γi activity coefficient ([2]; DMSO mass fraction m = 1.0, T = 303.2 K) was 4.988 and the γi activity coefficient ([2]; DMSO mass fraction m = 1.0, T = 308.2 K) was 4.919. The γi activity coefficient ([2]; DMSO mass fraction m = 1.0, T = 313.2 K) was 4.829 and the γi activity coefficient ([2]; DMSO mass fraction m = 1.0, T = 318.2 K) was 4.791.
